According to patent US20240228493A1, “LRRK2 INHIBITORS AND USES THEREOF” (NEURON23, ICN., priority 2022, published 2024):

Assays:
[1] = target: T1, wt human LRRK2, catalytic site (Homo sapiens, UniProt Q5S007); test: TR-FRET LanthaScreen Tb Kinase Activity Assay, LRRK2 inhibition; type: biochemical; conditions: 2 nM wt human LRRK2, 400 nM peptide, 38 μM ATP
T1 construct: wt human LRRK2, catalytic site, catalytic site (ThermoFisher/USA); purchased ThermoFisher
How it was run: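 Fluorescein-ERM (LRRKtide) peptide (400 nM) phosphorylated by 2 nM wt human LRRK2 catalytic site with 38 μM ATP in 1× Kinase Buffer A, 120 min at room temperature after 15 min compound–kinase preincubation. EDTA plus Tb-anti-pLRRKtide antibody added, read after 60 min; inhibition from TR-FRET emission ratios.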

human hepatocyte = test: Human hepatocyte stability, predicted hepatic clearance (h-Hept CL predict); type: in vitro ADME; conditions: human hepatocytes, 0.5×10^6 cells/mL, 1 μM, values without asterisk
How it was run: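 Cryopreserved human hepatocytes, 0.5×10^6 viable cells/mL in William's E/GlutaMAX, incubated with compound at 1 μM final, duplicates. Sampling at 0-120 min, LC/MS/MS parent loss gives t1/2, converted to CLint and scaled to predicted hepatic clearance (well-stirred model, fub assumed 1).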

Caco-2 cells = test: Caco-2 bidirectional permeability; type: in vitro ADME; conditions: for Caco-2 ER: Efflux Ratio=Papp(BA)/Papp(AB); for Caco-2 A2B (10^−6 cm/s): apical to basolateral; for Caco-2 A2B (10^−6 cm/s) / Caco-2 B2A (10^−6 cm/s): 2 hours, pH 7.4; for Caco-2 B2A (10^−6 cm/s): basolateral to apical
How it was run: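 Caco-2 monolayers were grown 21–28 days on PET inserts and run in duplicate in HBSS with 10 mM HEPES, pH 7.4. Test compound was dosed bidirectionally at […] for 2 h at 37 °C; quantification was by LC-MS/MS. Papp and efflux ratio (B-A/A-B) were calculated, with lucifer yellow monolayer integrity checks.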

T1 sequence (Q5S007 1879-2138 limits assumed): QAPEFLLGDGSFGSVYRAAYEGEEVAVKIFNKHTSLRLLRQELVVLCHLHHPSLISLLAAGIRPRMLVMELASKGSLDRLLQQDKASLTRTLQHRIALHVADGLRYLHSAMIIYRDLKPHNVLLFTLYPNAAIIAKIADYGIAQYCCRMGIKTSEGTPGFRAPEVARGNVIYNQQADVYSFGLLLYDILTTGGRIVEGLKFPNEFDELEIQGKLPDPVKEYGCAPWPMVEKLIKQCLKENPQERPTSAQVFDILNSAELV

SMILES	IC50 [1]	hHep Cl (mL/min/kg) (human hepatocyte)	Caco-2 ER (Caco-2 cells)	Caco-2 B2A (10^−6 cm/s) (Caco-2 cells)	Caco-2 A2B (10^−6 cm/s) (Caco-2 cells)
Cc1n[nH]c2c1N=C(c1c(F)cccc1F)Nc1ccc(N3CCO[C@H](C(C)(C)O)C3)cc1-2 (single isomer, unassigned) [Example 36]	1 to 100 nM	L (L (Low Cl)”: Hep Cl (mL/min/kg)<6.3)	L (L (Likely)”: ER≥2.5)	H (H (High permeability)”: A2B (B2A)>5)	M (M (Moderate permeability)”: 1≤A2B (B2A)≤5)
Cc1n[nH]c2c1N=C(c1c(F)cccc1F)Nc1cnc(N3C[C@@H]4C[C@H]3CO4)cc1-2 [Example 6, (1S,4S)-5-[8-(2,6-difluorophenyl)-5-methyl-3,4,7,9,12-pentazatricyclo[8.4.0.02,6]tetradeca-1(10),2(6),4,7,11,13-hexaen-13-y1]-2-oxa-5-azabicyclo[2.2.1]heptane]	1 to 100 nM	L (L (Low Cl)”: Hep Cl (mL/min/kg)<6.3)	L (L (Likely)”: ER≥2.5)	H (H (High permeability)”: A2B (B2A)>5)	M (M (Moderate permeability)”: 1≤A2B (B2A)≤5)
[2H]C1([2H])OC([2H])([2H])C([2H])([2H])N(c2cc3c(cn2)NC(c2c(F)cccc2F)=Nc2cn[nH]c2-3)C1([2H])[2H] [Example 20, 2,2,3,3,5,5,6,6-octadeuterio-4-[8-(2,6-difluorophenyl)-3,4,7,9,12-pentazatricyclo[8.4.0.02,6]tetradeca-1(10),2(6),4,7,11,13-hexaen-13-yl]morpholine]	< 1 nM	L (L (Low Cl)”: Hep Cl (mL/min/kg)<6.3)	L (L (Likely)”: ER≥2.5)	H (H (High permeability)”: A2B (B2A)>5)	M (M (Moderate permeability)”: 1≤A2B (B2A)≤5)
Fc1cccc(F)c1C1=Nc2c(Cl)n[nH]c2-c2cc(N3CCOCC3)ncc2N1 [Example 23, 4-(3-chloro-5-(2,6-difluorophenyl)-1,6-dihydropyrazolo[4,3-d]pyrido[4,3-f][1,3]diazepin-9-yl)morpholine]	< 1 nM	L (L (Low Cl)”: Hep Cl (mL/min/kg)<6.3)	L (L (Likely)”: ER≥2.5)	H (H (High permeability)”: A2B (B2A)>5)	M (M (Moderate permeability)”: 1≤A2B (B2A)≤5)
C[C@H]1CN(c2cc3c(cn2)NC(c2c(F)cccc2F)=Nc2c(Cl)n[nH]c2-3)C[C@H](C)O1 [Example 26, (2S,6S)-4-(3-chloro-5-(2,6-difluorophenyl)-1,6-dihydropyrazolo[4,3-d]pyrido[4,3-f][1,3]diazepin-9-yl)-2,6-dimethylmorpholine]	< 1 nM	I (I (Intermediate Cl)”: 6.3≤Hep Cl (mL/min/kg)≤14.7)	L (L (Likely)”: ER≥2.5)	H (H (High permeability)”: A2B (B2A)>5)	H (H (High permeability)”: A2B (B2A)>5)
[2H]C([2H])([2H])c1n[nH]c2c1N=C(c1c(F)cccc1F)Nc1cnc(N3CCO[C@H](C)C3)cc1-2 [Example 27, (2R)-4-[8-(2,6-difluorophenyl)-5-(trideuteriomethyl)-3,4,7,9,12-pentazatricyclo[8.4.0.02,6]tetradeca-1(10),2(6),4,7,11,13-hexaen-13-y1]-2-methyl-morpholine]	< 1 nM	L (L (Low Cl)”: Hep Cl (mL/min/kg)<6.3)	L (L (Likely)”: ER≥2.5)	H (H (High permeability)”: A2B (B2A)>5)	H (H (High permeability)”: A2B (B2A)>5)
Cc1n[nH]c2c1N=C(c1c(F)cccc1F)Nc1cnc(-c3cnn(CC(F)F)c3)cc1-2 [Example 28, 13-[1-(2,2-difluoroethyl)pyrazol-4-y1]-8-(2,6-difluorophenyl)-5-methyl-3,4,7,9,12-pentazatricyclo[8.4.0.02,6]tetradeca-1(10),2(6),4,7,11,13-hexaene]	< 1 nM	L (L (Low Cl)”: Hep Cl (mL/min/kg)<6.3)	L (L (Likely)”: ER≥2.5)	H (H (High permeability)”: A2B (B2A)>5)	M (M (Moderate permeability)”: 1≤A2B (B2A)≤5)
Fc1cccc(F)c1C1=Nc2cn[nH]c2-c2cc(N3CCOCC3)ncc2N1 [Example 33, 4-[8-(2,6-difluorophenyl)-3,4,7,9,12-pentazatricyclo[8.4.0.02,6]tetradeca-1(10),2(6),4,7,11,13-hexaen-13-yl]morpholine]	< 1 nM	L (L (Low Cl)”: Hep Cl (mL/min/kg)<6.3)	L (L (Likely)”: ER≥2.5)	H (H (High permeability)”: A2B (B2A)>5)	M (M (Moderate permeability)”: 1≤A2B (B2A)≤5)
Cc1n[nH]c2c1N=C(c1c(F)cccc1F)Nc1c-2cc(N2CCO[C@@H](CO)C2)nc1C [Example 37, (R)-(4-(5-(2,6-difluorophenyl)-3,7-dimethyl-1,6-dihydropyrazolo[4,3-d]pyrido[4,3-f][1,3]diazepin-9-yl)morpholin-2-y1)methanol]	< 1 nM	L (L (Low Cl)”: Hep Cl (mL/min/kg)<6.3)	L (L (Likely)”: ER≥2.5)	H (H (High permeability)”: A2B (B2A)>5)	M (M (Moderate permeability)”: 1≤A2B (B2A)≤5)
Cc1n[nH]c2c1N=C(c1c(F)cccc1F)Nc1c-2cc(N2CCC(C)(O)CC2)nc1C [Example 41, 1-(5-(2,6-difluorophenyl)-3,7-dimethyl-1,6-dihydropyrazolo[4,3-d]pyrido[4,3-f][1,3]diazepin-9-yl)-4-methylpiperidin-4-ol]	1 to 100 nM	I (I (Intermediate Cl)”: 6.3≤Hep Cl (mL/min/kg)≤14.7)	L (L (Likely)”: ER≥2.5)	H (H (High permeability)”: A2B (B2A)>5)	M (M (Moderate permeability)”: 1≤A2B (B2A)≤5)
Cn1cc(-c2cc3c(cn2)NC(c2c(F)cccc2F)=Nc2c(Cl)n[nH]c2-3)cn1 [Example 54, 3-chloro-5-(2,6-difluorophenyl)-9-(1-methyl-1H-pyrazol-4-yl)-1,6-dihydropyrazolo[4,3-d]pyrido[4,3-f][1,3]diazepine]	< 1 nM	I (I (Intermediate Cl)”: 6.3≤Hep Cl (mL/min/kg)≤14.7)	L (L (Likely)”: ER≥2.5)	H (H (High permeability)”: A2B (B2A)>5)	M (M (Moderate permeability)”: 1≤A2B (B2A)≤5)

Second part, led by results:

IC50 [1]	hHep Cl (mL/min/kg) (human hepatocyte)	Caco-2 ER (Caco-2 cells)	Caco-2 B2A (10^−6 cm/s) (Caco-2 cells)	SMILES	Caco-2 A2B (10^−6 cm/s) (Caco-2 cells)
< 1 nM	L (L (Low Cl)”: Hep Cl (mL/min/kg)<6.3)	L (L (Likely)”: ER≥2.5)	H (H (High permeability)”: A2B (B2A)>5)	Fc1cccc(F)c1C1=Nc2c(Cl)n[nH]c2-c2cc(N3CCOCC3)ccc2N1 (single isomer, unassigned) [Example 35, 4-(3-chloro-5-(2,6-difluorophenyl)-1,6-dihydrobenzo[d]pyrazolo[3,4-f][1,3]diazepin-9-y1)morpholine]	H (H (High permeability)”: A2B (B2A)>5)
< 1 nM	L (L (Low Cl)”: Hep Cl (mL/min/kg)<6.3)	L (L (Likely)”: ER≥2.5)	H (H (High permeability)”: A2B (B2A)>5)	Cc1n[nH]c2c1N=C(c1c(F)cccc1F)Nc1c-2cc(N2CCO[C@@H](C(C)(C)O)C2)nc1C (single isomer, unassigned) [Example 39]	M (M (Moderate permeability)”: 1≤A2B (B2A)≤5)
< 1 nM	L (L (Low Cl)”: Hep Cl (mL/min/kg)<6.3)	L (L (Likely)”: ER≥2.5)	H (H (High permeability)”: A2B (B2A)>5)	Cc1n[nH]c2c1N=C(c1c(F)cccc1F)Nc1cnc(N3CCS(=O)(=O)CC3)cc1-2 [Example 2, 4-[8-(2,6-difluorophenyl)-5-methyl-3,4,7,9,12-pentazatricyclo[8.4.0.02,6]tetradeca-1(10),2(6),4,7,11,13-hexaen-13-y1]-1,4-thiazinane 1,1-dioxide]	L (L (Low permeability)”: A2B (B2A)<1)
< 1 nM	L (L (Low Cl)”: Hep Cl (mL/min/kg)<6.3)	L (L (Likely)”: ER≥2.5)	H (H (High permeability)”: A2B (B2A)>5)	[2H]C1([2H])OC([2H])([2H])C([2H])([2H])N(c2cc3c(cn2)NC(c2c(F)cccc2F)=Nc2c(C)n[nH]c2-3)C1([2H])[2H] [Example 14, 2,2,3,3,5,5,6,6-octadeuterio-4-[8-(2,6-difluorophenyl)-5-methyl-3,4,7,9,12-pentazatricyclo[8.4.0.02,6]tetradeca-1(10),2(6),4,7,11,13-hexaen-13-yl]morpholine]	H (H (High permeability)”: A2B (B2A)>5)
< 1 nM	L (L (Low Cl)”: Hep Cl (mL/min/kg)<6.3)	L (L (Likely)”: ER≥2.5)	H (H (High permeability)”: A2B (B2A)>5)	Cc1n[nH]c2c1N=C(c1c(F)cccc1F)Nc1cnc(N3CCC[C@@H](C#N)C3)cc1-2 [Example 18, (3R)-1-[8-(2,6-difluorophenyl)-5-methyl-3,4,7,9,12-pentazatricyclo[8.4.0.02,6]tetradeca-1(10),2(6),4,7,11,13-hexaen-13-yl]piperidine-3-carbonitrile]	M (M (Moderate permeability)”: 1≤A2B (B2A)≤5)
